pIC50: −log10 of the molar value. Values joined by “and” are separate entries in the source; they are usually repeats but may differ in a detail not shown here. Identical values can stand only once.
Columns and labels:
SfurOBP3 = SfurOBP3 (Sogatella furcifera, UniProt V5T818); experiment: biochemical; assay type: binding; details: for Fluorescence competitive binding assay, fluorescence intensity: OBP3, three replicate columns
Procedure, shortened: (§1)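 Fluorescence competitive binding with 1-NPN as reporter: 2.0 µM protein and 2.0 µM 1-NPN in 50 mM Tris-HCl pH 7.4, odorant added at 2–20 µM final. Excitation 337 nm, emission 390–490 nm read 2 min after addition, triplicates. Ki = IC50/(1 + [1-NPN]/K1-NPN).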

SfurOBP2 = SfurOBP2 (Sogatella furcifera, UniProt V5T759); experiment: biochemical; assay type: binding
Procedure, shortened: as §1

SfurOBP1 = SfurOBP1 (Sogatella furcifera, UniProt V5T8N5); experiment: biochemical; assay type: binding; details: for Fluorescence competitive binding assay, fluorescence intensity: OBP1, three replicate columns
Procedure, shortened: as §1

SfurOBP11 = SfurOBP11 (Sogatella furcifera, UniProt V5T6E3); experiment: biochemical; assay type: binding
Procedure, shortened: as §1

S. furcifera adults = experiment: Y-tube olfactometer behavioral trials; assay type: in vivo, Sogatella furcifera; details: odorant 50 µL/L vs hexane
Procedure, shortened: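 Single S. furcifera adults (2 days post-emergence, starved 0.5 h) chose between odorant (100 µL of 50 µL/L on filter paper) and hexane control in a glass Y-tube, charcoal-filtered humidified air 300 mL/min per arm, 25 ± 1 °C, 50% RH. Choice scored if insect passed half an arm and stayed >1 min within 10 min; 45 insects per compound, chi-squared test.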

Sequence of SfurOBP2 (V5T759 entry or part of it): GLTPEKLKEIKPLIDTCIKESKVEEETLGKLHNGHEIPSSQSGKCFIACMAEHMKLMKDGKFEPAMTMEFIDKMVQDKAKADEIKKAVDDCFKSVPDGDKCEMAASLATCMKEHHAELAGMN
Sequence of SfurOBP3 (V5T818 entry or part of it): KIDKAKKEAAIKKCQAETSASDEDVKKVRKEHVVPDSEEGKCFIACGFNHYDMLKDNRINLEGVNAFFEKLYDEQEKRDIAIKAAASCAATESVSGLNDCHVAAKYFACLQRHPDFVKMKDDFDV
Sequence of SfurOBP1 (V5T8N5 entry or part of it): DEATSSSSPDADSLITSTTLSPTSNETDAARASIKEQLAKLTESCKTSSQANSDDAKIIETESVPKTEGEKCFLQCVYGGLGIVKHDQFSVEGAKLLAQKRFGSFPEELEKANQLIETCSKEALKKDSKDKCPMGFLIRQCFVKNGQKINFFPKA
Sequence of SfurOBP11 (V5T6E3 entry or part of it): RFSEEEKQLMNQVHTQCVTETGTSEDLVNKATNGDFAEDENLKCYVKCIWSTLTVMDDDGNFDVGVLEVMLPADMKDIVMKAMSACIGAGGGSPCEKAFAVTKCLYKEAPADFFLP

CCCCCCCCCCC [n-hendecane]
Fluorescence competitive binding assay, fluorescence intensity (SfurOBP3; ligand concentration 2): 74152 and 72365 and 72059
Fluorescence competitive binding assay, fluorescence intensity (SfurOBP3; ligand concentration 4): 77402 and 81799 and 77600
Fluorescence competitive binding assay, fluorescence intensity (SfurOBP3; ligand concentration 6): 79862 and 82180 and 72867
Fluorescence competitive binding assay, fluorescence intensity (SfurOBP3; ligand concentration 8): 73959 and 76680 and 68556
Fluorescence competitive binding assay, fluorescence intensity (SfurOBP3; ligand concentration 10): 74938 and 80983 and 75877
Fluorescence competitive binding assay, fluorescence intensity (SfurOBP3; ligand concentration 12): 71318 and 75448 and 71285
Fluorescence competitive binding assay, fluorescence intensity (SfurOBP3; ligand concentration 14): 70629 and 72724 and 74851
Fluorescence competitive binding assay, fluorescence intensity (SfurOBP3; ligand concentration 16): 63137 and 66714 and 63682
Fluorescence competitive binding assay, fluorescence intensity (SfurOBP3; ligand concentration 18): 73714 and 82385 and 76604
Fluorescence competitive binding assay, fluorescence intensity (SfurOBP3; ligand concentration 20): 75970 and 66519 and 62854
pIC50 (SfurOBP3; SfurOBP3, protein and 1-NPN both 2.0 µM, competitor 2-20 µM, read-out: IC50): < 4.70
pIC50 (SfurOBP2; SfurOBP2, protein and 1-NPN both 2.0 µM, competitor 2-20 µM, read-out: IC50): < 4.70
Fluorescence competitive binding assay, OBP2 (raw fluorescence reading) (SfurOBP2; ligand concentration 2 (unit not given), replicate column 1 of 3): 13775
Fluorescence competitive binding assay, OBP2 (raw fluorescence reading) (SfurOBP2; ligand concentration 2 (unit not given), replicate column 2 of 3): 13769
Fluorescence competitive binding assay, OBP2 (raw fluorescence reading) (SfurOBP2; ligand concentration 2 (unit not given), replicate column 3 of 3): 13734
Fluorescence competitive binding assay, OBP2 (raw fluorescence reading) (SfurOBP2; ligand concentration 4 (unit not given), replicate column 1 of 3): 13631
Fluorescence competitive binding assay, OBP2 (raw fluorescence reading) (SfurOBP2; ligand concentration 4 (unit not given), replicate column 2 of 3): 13783
Fluorescence competitive binding assay, OBP2 (raw fluorescence reading) (SfurOBP2; ligand concentration 4 (unit not given), replicate column 3 of 3): 13500
Fluorescence competitive binding assay, OBP2 (raw fluorescence reading) (SfurOBP2; ligand concentration 6 (unit not given), replicate column 1 of 3): 14480
Fluorescence competitive binding assay, OBP2 (raw fluorescence reading) (SfurOBP2; ligand concentration 6 (unit not given), replicate column 2 of 3): 14028
Fluorescence competitive binding assay, OBP2 (raw fluorescence reading) (SfurOBP2; ligand concentration 6 (unit not given), replicate column 3 of 3): 13866
Fluorescence competitive binding assay, OBP2 (raw fluorescence reading) (SfurOBP2; ligand concentration 8 (unit not given), replicate column 1 of 3): 14049
Fluorescence competitive binding assay, OBP2 (raw fluorescence reading) (SfurOBP2; ligand concentration 8 (unit not given), replicate column 2 of 3): 14101
Fluorescence competitive binding assay, OBP2 (raw fluorescence reading) (SfurOBP2; ligand concentration 8 (unit not given), replicate column 3 of 3): 13901
Fluorescence competitive binding assay, OBP2 (raw fluorescence reading) (SfurOBP2; ligand concentration 10 (unit not given), replicate column 1 of 3): 14583
Fluorescence competitive binding assay, OBP2 (raw fluorescence reading) (SfurOBP2; ligand concentration 10 (unit not given), replicate column 2 of 3): 14099
Fluorescence competitive binding assay, OBP2 (raw fluorescence reading) (SfurOBP2; ligand concentration 10 (unit not given), replicate column 3 of 3): 14077
Fluorescence competitive binding assay, OBP2 (raw fluorescence reading) (SfurOBP2; ligand concentration 12 (unit not given), replicate column 1 of 3): 12819
Fluorescence competitive binding assay, OBP2 (raw fluorescence reading) (SfurOBP2; ligand concentration 12 (unit not given), replicate column 2 of 3): 13447
Fluorescence competitive binding assay, OBP2 (raw fluorescence reading) (SfurOBP2; ligand concentration 12 (unit not given), replicate column 3 of 3): 13211
Fluorescence competitive binding assay, OBP2 (raw fluorescence reading) (SfurOBP2; ligand concentration 14 (unit not given), replicate column 1 of 3): 12583
Fluorescence competitive binding assay, OBP2 (raw fluorescence reading) (SfurOBP2; ligand concentration 14 (unit not given), replicate column 2 of 3): 13279
Fluorescence competitive binding assay, OBP2 (raw fluorescence reading) (SfurOBP2; ligand concentration 14 (unit not given), replicate column 3 of 3): 13266
Fluorescence competitive binding assay, OBP2 (raw fluorescence reading) (SfurOBP2; ligand concentration 16 (unit not given), replicate column 1 of 3): 12291
Fluorescence competitive binding assay, OBP2 (raw fluorescence reading) (SfurOBP2; ligand concentration 16 (unit not given), replicate column 2 of 3): 12273
Fluorescence competitive binding assay, OBP2 (raw fluorescence reading) (SfurOBP2; ligand concentration 16 (unit not given), replicate column 3 of 3): 12414
Fluorescence competitive binding assay, OBP2 (raw fluorescence reading) (SfurOBP2; ligand concentration 18 (unit not given), replicate column 1 of 3): 15293
Fluorescence competitive binding assay, OBP2 (raw fluorescence reading) (SfurOBP2; ligand concentration 18 (unit not given), replicate column 2 of 3): 14599
Fluorescence competitive binding assay, OBP2 (raw fluorescence reading) (SfurOBP2; ligand concentration 18 (unit not given), replicate column 3 of 3): 14178
Fluorescence competitive binding assay, OBP2 (raw fluorescence reading) (SfurOBP2; ligand concentration 20 (unit not given), replicate column 1 of 3): 14271
Fluorescence competitive binding assay, OBP2 (raw fluorescence reading) (SfurOBP2; ligand concentration 20 (unit not given), replicate column 2 of 3): 14231
Fluorescence competitive binding assay, OBP2 (raw fluorescence reading) (SfurOBP2; ligand concentration 20 (unit not given), replicate column 3 of 3): 15281
Fluorescence competitive binding assay, fluorescence intensity (SfurOBP1; ligand concentration 2 (μM)): 8889 and 7931 and 9847
Fluorescence competitive binding assay, fluorescence intensity (SfurOBP1; ligand concentration 4 (μM)): 9154 and 8432 and 9875
Fluorescence competitive binding assay, fluorescence intensity (SfurOBP1; ligand concentration 6 (μM)): 7581 and 8720 and 8173
Fluorescence competitive binding assay, fluorescence intensity (SfurOBP1; ligand concentration 8 (μM)): 8276 and 7641 and 8381
Fluorescence competitive binding assay, fluorescence intensity (SfurOBP1; ligand concentration 10 (μM)): 7644 and 8267 and 8233
Fluorescence competitive binding assay, fluorescence intensity (SfurOBP1; ligand concentration 12 (μM)): 8969 and 10263 and 9250
Fluorescence competitive binding assay, fluorescence intensity (SfurOBP1; ligand concentration 14 (μM)): 8392 and 9042 and 10874
Fluorescence competitive binding assay, fluorescence intensity (SfurOBP1; ligand concentration 16 (μM)): 8482 and 9466 and 8778
Fluorescence competitive binding assay, fluorescence intensity (SfurOBP1; ligand concentration 18 (μM)): 11781 and 12671 and 12573
Fluorescence competitive binding assay, fluorescence intensity (SfurOBP1; ligand concentration 20 (μM)): 13259 and 11367 and 9255
pIC50 (SfurOBP1; SfurOBP1, protein and 1-NPN both 2.0 µM, competitor 2-20 µM, read-out: IC50): < 4.70
pIC50 (SfurOBP11; SfurOBP11, protein and 1-NPN both 2.0 µM, competitor 2-20 µM, read-out: IC50): < 4.70
Fluorescence intensity, fluorescence competitive binding assay, OBP11 (SfurOBP11; ligand concentration 2, replicate 1): 27436
Fluorescence intensity, fluorescence competitive binding assay, OBP11 (SfurOBP11; ligand concentration 2, replicate 2): 25403
Fluorescence intensity, fluorescence competitive binding assay, OBP11 (SfurOBP11; ligand concentration 2, replicate 3): 32188
Fluorescence intensity, fluorescence competitive binding assay, OBP11 (SfurOBP11; ligand concentration 4, replicate 1): 29413
Fluorescence intensity, fluorescence competitive binding assay, OBP11 (SfurOBP11; ligand concentration 4, replicate 2): 28026
Fluorescence intensity, fluorescence competitive binding assay, OBP11 (SfurOBP11; ligand concentration 4, replicate 3): 33638
Fluorescence intensity, fluorescence competitive binding assay, OBP11 (SfurOBP11; ligand concentration 6, replicate 1): 33021
Fluorescence intensity, fluorescence competitive binding assay, OBP11 (SfurOBP11; ligand concentration 6, replicate 2): 33682
Fluorescence intensity, fluorescence competitive binding assay, OBP11 (SfurOBP11; ligand concentration 6, replicate 3): 34343
Fluorescence intensity, fluorescence competitive binding assay, OBP11 (SfurOBP11; ligand concentration 8, replicate 1): 31948
Fluorescence intensity, fluorescence competitive binding assay, OBP11 (SfurOBP11; ligand concentration 8, replicate 2): 30771
Fluorescence intensity, fluorescence competitive binding assay, OBP11 (SfurOBP11; ligand concentration 8, replicate 3): 33124
Fluorescence intensity, fluorescence competitive binding assay, OBP11 (SfurOBP11; ligand concentration 10, replicate 1): 30756
Fluorescence intensity, fluorescence competitive binding assay, OBP11 (SfurOBP11; ligand concentration 10, replicate 2): 30287
Fluorescence intensity, fluorescence competitive binding assay, OBP11 (SfurOBP11; ligand concentration 10, replicate 3): 30522
Fluorescence intensity, fluorescence competitive binding assay, OBP11 (SfurOBP11; ligand concentration 12, replicate 1): 29262
Fluorescence intensity, fluorescence competitive binding assay, OBP11 (SfurOBP11; ligand concentration 12, replicate 2): 31182
Fluorescence intensity, fluorescence competitive binding assay, OBP11 (SfurOBP11; ligand concentration 12, replicate 3): 32197
Fluorescence intensity, fluorescence competitive binding assay, OBP11 (SfurOBP11; ligand concentration 14, replicate 1): 28697
Fluorescence intensity, fluorescence competitive binding assay, OBP11 (SfurOBP11; ligand concentration 14, replicate 2): 28336
Fluorescence intensity, fluorescence competitive binding assay, OBP11 (SfurOBP11; ligand concentration 14, replicate 3): 31391
Fluorescence intensity, fluorescence competitive binding assay, OBP11 (SfurOBP11; ligand concentration 16, replicate 1): 26235
Fluorescence intensity, fluorescence competitive binding assay, OBP11 (SfurOBP11; ligand concentration 16, replicate 2): 27774
Fluorescence intensity, fluorescence competitive binding assay, OBP11 (SfurOBP11; ligand concentration 16, replicate 3): 27525
Fluorescence intensity, fluorescence competitive binding assay, OBP11 (SfurOBP11; ligand concentration 18, replicate 1): 34849
Fluorescence intensity, fluorescence competitive binding assay, OBP11 (SfurOBP11; ligand concentration 18, replicate 2): 34941
Fluorescence intensity, fluorescence competitive binding assay, OBP11 (SfurOBP11; ligand concentration 18, replicate 3): 33114
Fluorescence intensity, fluorescence competitive binding assay, OBP11 (SfurOBP11; ligand concentration 20, replicate 1): 29304
Fluorescence intensity, fluorescence competitive binding assay, OBP11 (SfurOBP11; ligand concentration 20, replicate 2): 30167
Fluorescence intensity, fluorescence competitive binding assay, OBP11 (SfurOBP11; ligand concentration 20, replicate 3): 28561
behavioral response of S. furcifera (in words) (S. furcifera adults): strongly attracted
number of insects choosing hexane arm (S. furcifera adults; adults): 8
number of insects choosing volatilies arm (S. furcifera adults; adults): 18
number of insects failed (no choice) (S. furcifera adults; adults): 14

Source: paper PMC6409085, “Three odorant-binding proteins are involved in the behavioral response of Sogatella furcifera to rice plant volatiles” (PeerJ, 2019)
